Measurements: patent US8569267B2, “Tetracyclic tetrahydrofuran derivatives containing cyclic amine side chain” (Janssen Pharmaceutica, NV, priority 2005, dated 2013)
Read-outs that look alike come from different tables or passages of the source.

Experiments:
[1] = target: T1, human cloned 5-HT2A receptor, expressed in L929 cells (Homo sapiens, UniProt P28223); experiment: In vitro binding affinity for 5-HT2A receptor ([125I]R91150 radioligand binding)
T1 construct: expressed in transfected cells; host or cells: L929 cells
Method: (§1) In Vitro Binding Affinity for 5-HT2A and 5-HT2C Receptors
(§2) The interaction of the compounds of Formula (I) with 5-HT2A and 5-HT2C receptors was assessed in in vitro radioligand binding experiments. […] During the incubation, the radioligands bind to the receptor. When equilibrium of binding is reached, the receptor bound radioactivity is separated from the non-bound radioactivity, and the receptor bound activity is counted. The interaction of the test compounds with the receptors is assessed in competition binding experiments. Various concentrations of the test compound are added to the incubation mixture containing the tissue preparation and the radioligand. Binding of the radioligand will be inhibited by the test compound in proportion to its binding affinity and its concentration. The affinities of the compounds for the 5-HT2 receptors were measured by means of radioligand binding studies conducted with: (a) human cloned 5-HT2A receptor, expressed in L929 cells using [^125I]R91150 as radioligand and (b) human cloned 5-HT2C receptor, expressed in CHO cells using [^3H]mesulergine as radioligand.

[2] = target: T2, human Dopamine D2L receptor (Homo sapiens, UniProt P14416); experiment: In vitro binding affinity for human D2L receptor ([3H]Spiperone binding); details: human D2L receptor-transfected CHO cell membranes, read-out: D2L pIC50 (converted)
T2 construct: expressed in transfected cells; host or cells: CHO cells
Method: In Vitro Binding Affinity for Human D2L Receptor
Frozen membranes of human Dopamine D2L receptor-transfected CHO cells were thawed, briefly homogenised using an Ultra-Turrax T25 homogeniser and diluted in Tris-HCl assay buffer containing NaCl, CaCl2, MgCl2, KCl (50, 120, 2, 1, and 5 mM respectively, adjusted to pH 7.7 with HCl) to an appropriate protein concentration optimised for specific and non-specific binding. Radioligand [^3H]Spiperone (NEN, specific activity ˜70 Ci/mmol) was diluted in assay buffer at a concentration of 2 nmol/L. Prepared radioligand (50 μl), along with 50 μl of either the 10% DMSO control, Butaclamol (10^−6 mol/l final concentration), or compound of interest, was then incubated (30 min, 37° C.) with 400 μl of the prepared membrane solution. Membrane-bound activity was filtered through a Packard Filtermate harvester onto GF/B Unifilterplates and washed with ice-cold Tris-HCl buffer (50 mM; pH 7.7; 6×0.5 ml). Filters were allowed to dry before adding scintillation fluid and counting in a Topcount scintillation counter. Percentage specific bound and competition binding curves were calculated using S-Plus software (Insightful).

[3] = target: T3, human cloned 5-HT2C receptor, expressed in CHO cells (Homo sapiens, UniProt P28335); experiment: In vitro binding affinity for 5-HT2C receptor ([3H]mesulergine radioligand binding); details: human cloned 5-HT2C receptor, read-out: 5-HT2C pIC50 (converted)
T3 construct: expressed in transfected cells; host or cells: CHO cells
T3 sequence (P28335 33-458): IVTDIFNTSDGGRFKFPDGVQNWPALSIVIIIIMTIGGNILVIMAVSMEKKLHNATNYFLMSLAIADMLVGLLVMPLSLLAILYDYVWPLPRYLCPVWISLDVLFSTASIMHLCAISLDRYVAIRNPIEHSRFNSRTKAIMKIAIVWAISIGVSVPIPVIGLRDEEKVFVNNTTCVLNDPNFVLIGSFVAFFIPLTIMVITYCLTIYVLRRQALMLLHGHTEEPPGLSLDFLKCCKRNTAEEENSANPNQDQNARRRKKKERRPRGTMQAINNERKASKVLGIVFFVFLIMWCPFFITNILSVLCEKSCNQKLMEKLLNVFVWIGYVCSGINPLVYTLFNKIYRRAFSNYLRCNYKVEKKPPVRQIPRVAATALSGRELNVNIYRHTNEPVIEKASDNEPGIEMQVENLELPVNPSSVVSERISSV
Method: as §1
as §2, with “concentration.” for “concentration. The affinities of the compounds for the 5-HT2 receptors were measured by means of radioligand binding studies conducted with: (a) human cloned 5-HT2A receptor, expressed in L929 cells using [^125I]R91150 as radioligand and (b) human cloned 5-HT2C receptor, expressed in CHO cells using [^3H]mesulergine as radioligand.”

[4] = target: T4, NET (norepinephrine transporter) (Rattus norvegicus, UniProt Q63380); experiment: In vitro determination of NET reuptake inhibition ([3H]Nixosetine binding, rat brain cortex); details: rat brain cortex, read-out: NET pIC50 (converted)
T4 construct: Cortex from rat brain was collected and homogenised; from tissue; host or cells: rat brain cortex
Method: In Vitro Determination of NET Reuptake Inhibition
Cortex from rat brain was collected and homogenised using an Ultra-Turrax T25 and a Dual homogeniser in ice-cold homogenising buffer containing Tris, NaCl and KCl (50 mM, 120 mM and 5 mM, respectively, pH 7.4) prior to dilution to an appropriate protein concentration optimised for specific and non-specific binding. […] Membrane-bound activity was detected by filtration through a Packard Filtermate harvester onto GF/B Unifilterplates, washed with ice-cold Tris-HCl buffer, containing NaCl and KCl (50 mM, 120 mM and 4 mM; pH 7.4; 6×0.5 ml). Filters were allowed to dry for 24 h before adding scintillation fluid. Scintillation fluid was allowed to saturate filters for 24 h before counting in a Topcount scintillation counter. Percentage specific bound and competition binding curves were calculated using S-Plus software (Insightful).

[5] = human cloned 5-HT2A receptor in L929 cells, [125I]R91150, read-out: 5-HT2A pIC50 (converted)

T1 sequence (P28223 whole entry): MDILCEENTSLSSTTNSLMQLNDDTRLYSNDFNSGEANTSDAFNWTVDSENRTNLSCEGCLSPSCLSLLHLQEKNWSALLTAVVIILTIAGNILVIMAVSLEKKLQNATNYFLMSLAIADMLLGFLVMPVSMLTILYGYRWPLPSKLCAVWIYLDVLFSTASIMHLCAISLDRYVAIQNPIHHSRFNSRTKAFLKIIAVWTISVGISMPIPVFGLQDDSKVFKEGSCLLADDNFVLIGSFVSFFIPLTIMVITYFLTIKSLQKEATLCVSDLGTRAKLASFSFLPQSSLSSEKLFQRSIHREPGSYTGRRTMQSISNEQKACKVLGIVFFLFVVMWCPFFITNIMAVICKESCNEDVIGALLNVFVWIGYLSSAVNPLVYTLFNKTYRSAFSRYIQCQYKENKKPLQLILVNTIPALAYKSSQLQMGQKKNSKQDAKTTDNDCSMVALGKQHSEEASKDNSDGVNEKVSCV
T2 sequence (P14416 whole entry): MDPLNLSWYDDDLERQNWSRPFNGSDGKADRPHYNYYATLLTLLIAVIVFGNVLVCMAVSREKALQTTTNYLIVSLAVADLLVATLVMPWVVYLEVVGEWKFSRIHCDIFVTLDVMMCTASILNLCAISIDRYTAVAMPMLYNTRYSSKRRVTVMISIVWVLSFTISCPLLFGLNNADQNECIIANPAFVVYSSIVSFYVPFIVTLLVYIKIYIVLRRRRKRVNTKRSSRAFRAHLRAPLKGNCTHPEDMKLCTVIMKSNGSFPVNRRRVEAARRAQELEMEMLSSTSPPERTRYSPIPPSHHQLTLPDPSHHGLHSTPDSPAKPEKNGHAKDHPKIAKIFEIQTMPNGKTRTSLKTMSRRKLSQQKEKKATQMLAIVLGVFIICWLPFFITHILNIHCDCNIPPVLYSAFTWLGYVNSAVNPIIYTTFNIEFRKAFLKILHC
T4 sequence (Q63380 1-617): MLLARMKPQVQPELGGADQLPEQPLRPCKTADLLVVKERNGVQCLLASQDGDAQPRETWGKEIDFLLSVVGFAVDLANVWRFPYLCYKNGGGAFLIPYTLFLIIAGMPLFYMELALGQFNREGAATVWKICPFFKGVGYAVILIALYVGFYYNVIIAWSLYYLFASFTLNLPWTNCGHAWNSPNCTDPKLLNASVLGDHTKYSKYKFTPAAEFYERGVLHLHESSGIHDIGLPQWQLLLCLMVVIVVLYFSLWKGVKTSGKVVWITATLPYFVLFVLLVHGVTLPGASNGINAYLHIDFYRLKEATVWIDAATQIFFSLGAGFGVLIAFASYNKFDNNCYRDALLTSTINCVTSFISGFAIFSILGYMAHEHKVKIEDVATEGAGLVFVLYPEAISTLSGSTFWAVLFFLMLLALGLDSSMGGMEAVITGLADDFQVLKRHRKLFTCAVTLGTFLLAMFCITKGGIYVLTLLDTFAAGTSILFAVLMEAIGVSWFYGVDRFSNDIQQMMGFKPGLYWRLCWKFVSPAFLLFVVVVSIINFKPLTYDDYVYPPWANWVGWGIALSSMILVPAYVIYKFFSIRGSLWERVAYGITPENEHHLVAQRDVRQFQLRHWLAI

SMILES	IC50 [1, 5] [nM]	IC50 [2] [nM]	IC50 [3] [nM]	IC50 [4] [nM]	IC50 [1] [nM]
OCCC1CCN(CC2CC3c4ccccc4Cc4ccc(F)cc4C3O2)C1 (mixture of isomers) [Compound 6]	1.45	4.07	1.7	501	–
CN(C)C1CCN(CC2CC3c4ccccc4Cc4ccc(F)cc4C3O2)C1 (mixture of isomers) [Compound 9]	9.12	9.12	9.55	4570	–
O=C(OC1CCN(CC2CC3c4ccccc4Cc4ccc(F)cc4C3O2)C1)C1CC1 (mixture of isomers) [Compound 13]	0.912	3.47	1.12	5010	–
O=C(OC1CCN(CC2CC3c4ccccc4Cc4ccc(F)cc4C3O2)C1)C1CCCC1 (mixture of isomers) [Compound 14]	4.17	3.89	3.31	1230	–
Cc1ccc(C(=O)OC2CCN(CC3CC4c5ccccc5Cc5ccc(F)cc5C4O3)C2)cc1 (mixture of isomers) [Compound 15]	7.94	7.41	6.31	2090	–
O=C(OC1CCN(CC2CC3c4ccccc4Cc4ccc(F)cc4C3O2)C1)c1ccc(F)cc1 (mixture of isomers) [Compound 16]	5.62	5.13	2.82	2000	–
O=C(OC1CCN(CC2CC3c4ccccc4Cc4ccc(F)cc4C3O2)C1)c1ccc(F)cc1F (mixture of isomers) [Compound 17]	5.75	6.03	4.68	1740	–
O=C(Cc1ccccc1)OC1CCN(CC2CC3c4ccccc4Cc4ccc(F)cc4C3O2)C1 (mixture of isomers) [Compound 18]	–	10.2	3.63	1780	6.03
CCNC(=O)OCC1CCN(CC2CC3c4ccccc4Cc4ccc(F)cc4C3O2)C1 (mixture of isomers) [Compound 20]	0.832	3.63	1.41	1050	–
O=C(NC1CCCCC1)OCC1CCN(CC2CC3c4ccccc4Cc4ccc(F)cc4C3O2)C1 (mixture of isomers) [Compound 21]	1.91	7.24	2.88	1450	–
O=C(Nc1ccccc1)OCC1CCN(CC2CC3c4ccccc4Cc4ccc(F)cc4C3O2)C1 (mixture of isomers) [Compound 22]	3.09	5.01	3.72	2510	–
O=C(NCc1ccccc1)OCC1CCN(CC2CC3c4ccccc4Cc4ccc(F)cc4C3O2)C1 (mixture of isomers) [Compound 24]	1.82	4.27	1.45	2690	–
N#Cc1cccc(OC2CCN(CC3CC4c5ccccc5Cc5ccc(F)cc5C4O3)C2)c1 (mixture of isomers) [Compound 29]	7.24	14.5	3.39	8510	–
COc1cccc(OC2CCN(CC3CC4c5ccccc5Cc5ccc(F)cc5C4O3)C2)c1 (mixture of isomers) [Compound 31]	9.77	13.5	3.24	4070	–
COc1ccccc1OC1CCN(CC2CC3c4ccccc4Cc4ccc(F)cc4C3O2)C1 (mixture of isomers) [Compound 32]	2.19	7.41	0.912	7410	–
COc1ccc(OC2CCN(CC3CC4c5ccccc5Cc5ccc(F)cc5C4O3)C2)cc1 (mixture of isomers) [Compound 33]	6.17	7.94	2	4900	–
Fc1ccc2c(c1)C1OC(CN3CCC(Oc4ccccc4F)C3)CC1c1ccccc1C2 (mixture of isomers) [Compound 34]	7.24	10	0.427	6170	–
Fc1ccc(OC2CCN(CC3CC4c5ccccc5Cc5ccc(F)cc5C4O3)C2)cc1 (mixture of isomers) [Compound 36]	12.3	21.9	4.68	4070	–
Fc1ccc2c(c1)C1OC(CN3CCC(Oc4cccc(C(F)(F)F)c4)C3)CC1c1ccccc1C2 (mixture of isomers) [Compound 37]	22.4	32.4	7.94	> 10000	–
COCC1CCCN1CC1CC2c3ccccc3Cc3ccc(F)cc3C2O1 (mixture of isomers) [Compound 38]	13.5	224	15.5	5130	–
OC1(c2ccc(F)cc2)CCN(CC2CC3c4ccccc4Cc4ccc(F)cc4C3O2)C1 (mixture of isomers) [Compound 41]	1.82	4.27	2.29	7080	–
OC(COCc1ccco1)CN1CCN(CC2CC3c4ccccc4Cc4ccc(F)cc4C3O2)CC1 (mixture of isomers) [Compound 55]	2.69	8.13	3.16	1820	–
OC(COc1ccc(F)cc1)CN1CCN(CC2CC3c4ccccc4Cc4ccc(F)cc4C3O2)CC1 (mixture of isomers) [Compound 57]	7.24	18.6	17.8	> 10000	–
O=C(C1CCCO1)N1CCN(CC2CC3c4ccccc4Cc4ccc(F)cc4C3O2)CC1 (mixture of isomers) [Compound 80]	1.07	44.7	16.6	3720	–
OCC1CN(CC2CC3c4ccccc4Cc4ccc(F)cc4C3O2)CCO1 (mixture of isomers) [Compound 128, [2R-(2aα, 3aα, 12bβ)]-(3′RS)-[4-(11-fluoro-3,3a,8,12b-tetrahydro-2H-1-oxa-dibenzo[e,h]azulen-2-ylmethyl)-morpholin-2-yl]-methanol.oxalate (1:1)]	4.37	18.6	11.7	2630	–
CN(CCO)CCC1CN(CC2CC3c4ccccc4Cc4ccc(F)cc4C3O2)CCO1 (mixture of isomers) [Compound 133]	49	355	34.7	933	–
OCC1CCCCN1CC1CC2c3ccccc3Cc3ccc(F)cc3C2O1 (mixture of isomers) [Compound 146]	16.6	81.3	11.5	> 10000	–
O=C(OCc1ccccc1)N1CCN(CC2CC3c4ccccc4Cc4ccc(F)cc4C3O2)CC1 (stereo not drawn) [Compound 85]	66.1	–	63.1	> 10000	–
